The values that follow are results of earlier work, collected in paper PMC7350276 (Journal of pharmaceutical and biomedical analysis, 2019).

Read-outs that look alike come from different tables or passages of the source.

The conditions of data set [1]: male rats, I.V. 4 mg/kg.
Data set [2] deals with μ-opioid receptors.
In data set [3] the test system is μ-opioid receptors. Particulars: reversal of morphine-induced inhibition of twitch of the Guinea pig ileum.
The test system of data set [4] is rabbits. Particulars: subcutaneous 15–20 mg/kg, co-injected with 0.2 mg/kg adrenaline.
The test system of data set [5] is rabbits. Particulars: intravenously at doses higher than 10 mg/kg.
The conditions of data set [6]: I.V. 5 mg/kg, mean ± R.S.D.

With `CC[C@@H]1CN2CC[C@@]3(O)C(=Nc4cccc(OC)c43)[C@@H]2C[C@@H]1/C(=C\OC)C(=O)OC` [7HMG, 7-hydroxymitragynine], the MRT in data set [1] is 1.18 ± 0.167 h. Besides, in the data set on μ-opioid receptors [2] (no reference given), the “Functional activity at μ-opioid receptors” value (from here on “Functional activity”) is recorded as “potent μ-opioid agonist”.
For the compound corynantheidine, in the data set with μ-opioid receptors [3], the “Functional activity” value is “antagonist”. In the data set on rabbits [4], the “Effect on adrenaline-induced mydriasis” value is listed as “prevented adrenaline-induced mydriasis”. The “Effect on hypertensive effects of adrenaline” value in the data set with rabbits [5] is “almost fully blocked”.
Consider mitragynine [MG], for which the MRT in data set [6] is listed as 137 ± 18. The “Functional activity” value with μ-opioid receptors [2] was “partial agonist”.
